ChEMBL document CHEMBL1134179, “Equilibrium and kinetics studies of transnitrosation between S-nitrosothiols and thiols” (Bioorg Med Chem Lett, 2001)

Assay: pKa value was determined
Assay type: physicochemical

Compound | pKa
CC(=O)N[C@@H](CS)C(=O)O [ACETYLCYSTEINE] | 9.52
N[C@@H](CCC(=O)N[C@@H](CS)C(=O)NCC(=O)O)C(=O)O [GLUTATHIONE] | 8.75
CC(C)(S)[C@@H](N)C(=O)O [PENICILLAMINE] | 8.53

Second part, the molecule after the results:

pKa | Compound
6.5 | CCOC(=O)[C@@H](N)CS
9.9 | CC(=O)NC(C(=O)O)C(C)(C)S (stereo not given) [N-ACETYL PENICILLAMINE]
